Reference: US11066414B2, “Cot modulators and methods of use thereof” (Gilead Sciences, Inc., priority 2015, dated 2021)
Read-outs that look alike come from different tables or passages of the source.

Assays:
TNFα = experiment: Cot Monocyte TNFα Cell Based Assay
Human Cot = Human Cot (Homo sapiens (Human), UniProt P41279); experiment: High Throughput Cot Biochemical Assay
[1] = Homo sapiens, Monocyte, read-out: EC50 TNF, LPS-stimulated human monocytes, TNFα
[2] = IC50 HTRF, Cot HTRF (TR-FRET) biochemical assay
[3] = read-out: EC50 TNF, LPS-stimulated human monocytes, TNFα TR-FRET
[4] = read-out: IC50 HTRF, Cot HTRF (TR-FRET KinEASE) biochemical assay, 400 μM ATP

Chain of Human Cot (P41279 30-397): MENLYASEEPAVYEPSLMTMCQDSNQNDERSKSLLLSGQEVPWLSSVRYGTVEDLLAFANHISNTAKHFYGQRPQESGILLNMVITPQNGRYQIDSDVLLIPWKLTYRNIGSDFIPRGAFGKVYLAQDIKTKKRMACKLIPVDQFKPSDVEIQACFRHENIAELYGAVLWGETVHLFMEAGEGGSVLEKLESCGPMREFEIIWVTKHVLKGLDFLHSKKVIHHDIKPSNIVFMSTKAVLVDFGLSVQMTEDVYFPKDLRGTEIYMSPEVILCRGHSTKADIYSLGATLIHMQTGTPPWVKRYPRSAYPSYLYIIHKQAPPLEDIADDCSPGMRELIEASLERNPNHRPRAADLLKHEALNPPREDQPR

SMILES	EC50 (TNFα; [1]) [nM]	IC50 (Human Cot; [2]) [nM]	other results
Cc1ncsc1[C@H](Nc1cc(Cl)c2ncc(C#N)c(Nc3ccc(Cl)c(Cl)c3F)c2c1)c1cn(C(C)C)nn1 [Example 235, (R)-8-chloro-4-((3,4-dichloro-2-fluorophenyl)amino)-6-(((1-isopropyl-1H-1,2,3-triazol-4-yl)(4-methylthiazol-5-yl)methyl)amino)quinoline-3-carbonitrile]	370	17	
CC(C)(C)CNc1c(C#N)cnc2c(Cl)cc(N[C@H](c3cn(C4CC4)nn3)c3cccc4scnc34)cc12 [Example 449, (S)-6-((benzo[d]thiazol-4-yl(1-cyclopropyl-1H-1,2,3-triazol-4-yl)methyl)amino)-8-chloro-4-(neopentylamino)quinoline-3-carbonitrile]	407	19	
Cc1nc(F)ccc1[C@H](Nc1cc(Cl)c2ncc(C#N)c(NCC(C)(C)C(F)(F)F)c2c1)c1nnn([C@@H](C)CF)c1F [Example 955, 8-chloro-6-(((S)-(5-fluoro-1-((S)-1-fluoropropan-2-yl)-1H-1,2,3-triazol-4-yl)(6-fluoro-2-methylpyridin-3-yl)methyl)amino)-4-((3,3,3-trifluoro-2,2-dimethylpropyl)amino)quinoline-3-carbonitrile]			EC50 (TNFα; Homo sapiens, Monocyte, read-out: EC50 TNF, LPS-stimulated human monocytes, TNFα TR-FRET): 50 nM; IC50 (Human Cot; IC50 HTRF, Cot HTRF (TR-FRET KinEASE) biochemical assay, 400 μM ATP): 6 nM
Cn1ncc2c([C@H](Nc3cc(Cl)c4ncc(C#N)c(NCC(C)(C)C)c4c3)c3cn(C4(C)CC4)nn3)cccc21 [Example 525, (S)-8-chloro-6-(((1-methyl-1H-indazol-4-yl)(1-(1-methylcyclopropyl)-1H-1,2,3-triazol-4-yl)methyl)amino)-4-(neopentylamino)quinoline-3-carbonitrile]	164	4	
Cc1nc(F)ccc1[C@H](Nc1cc(C#N)c2ncc(C#N)c(NCC(C)(C)C(F)(F)F)c2c1)c1cn(C2(C3CC3)CC2)nn1 [Example 867, (S)-6-(((4-(1-(1,1-bi(cyclopropan)]-1-yl)-1H-1,2,3-triazol-4-yl)(6-fluoro-2-methylpyridin-3-yl)methyl)amino)-4-((3,3,3-trifluoro-2,2-dimethylpropyl)amino)quinoline-3,8-dicarbonitrile]			EC50 (TNFα; [3]): 27 nM; IC50 (Human Cot; [4]): 3 nM
N#CCn1cc([C@@H](Nc2cc(Cl)c3ncc(C#N)c(Nc4ccc(F)c(Cl)c4)c3c2)c2cscn2)nn1 [Example 364, (S)-8-chloro-4-((3-chloro-4-fluorophenyl)amino)-6-(((1-(cyanomethyl)-1H-1,2,3-triazol-4-yl)(thiazol-4-yl)methyl)amino)-quinoline-3-carbonitrile]	241	7	
COc1nccc2c([C@H](Nc3cc(Cl)c4ncc(C#N)c(NCC(C)(C)C)c4c3)c3cn(C4CC4)nn3)cccc12 [Example 912, (S)-8-chloro-6-(((1-cyclopropyl-1H-1,2,3-triazol-4-yl)(1-methoxylsoquinolin-5-yl)methyl)amino)-4-(neopentylamino)quinoline-3-carbonitrile]			EC50 (TNFα; [3]): 78 nM; IC50 (Human Cot; [4]): 6 nM
[2H][C@](Nc1cc(Cl)c2ncc(C#N)c(Nc3cnc(F)c(F)c3)c2c1)(c1cccnc1)c1cn(-c2ccccc2)nn1 [Example 162, (S)-8-chloro-4-((5,6-difluoropyridin-3-yl)amino)-6-(((1-phenyl-1H-1,2,3-triazol-4-yl)(pyridin-3-yl)methyl-d)amino)quinoline-3-carbonitrile]	429	7	
N#Cc1cnc2c(Cl)cc(N[C@@H](c3cccnc3)c3cn(-c4ccccc4)nn3)cc2c1Nc1cnc(F)c(F)c1 [Example 160, (S)-8-chloro-4-((5,6-difluoropyridin-3-yl)amino)-6-(((1-phenyl-1H-1,2,3-triazol-4-yl)(pyridin-3-yl)methyl)amino)quinoline-3-carbonitrile]	484	11	
CC(C)(C)CNc1c(C#N)cnc2c(C#N)cc(N[C@H](c3cn(CC(F)(F)F)nn3)c3cccc4ncsc34)cc12 [Example 460, (S)-6-((benzo[d]thiazol-7-yl(1-(2,2,2-trifluoroethyl)-1H-1,2,3-triazol-4-yl)methyl)amino)-4-(neopentylamino)-quinoline-3,8-dicarbonitrile]	156	5	
